Laboratory results reported in PubChem BioAssay (NCI).
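96-well plates; 48 h exposure; 5 concentrations. Endpoints by linear interpolation between flanking doses. Not reached: highest tested concentration assigned. TGI: total growth inhibition.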

How the values were obtained:
Assay in all cases: NCI anticancer screen, dose series, 48 h
786-0 renal = system: 786-0 renal
A498 renal = system: A498 renal
A549 NSCLC = system: A549 NSCLC
ACHN renal = system: ACHN renal
BT-549 breast = system: BT-549 breast
CAKI-1 renal = system: CAKI-1 renal
CCRF-CEM leukemia = system: CCRF-CEM leukemia
COLO 205 colon = system: COLO 205 colon
DU-145 prostate = system: DU-145 prostate
EKVX NSCLC = system: EKVX NSCLC
HCC-2998 colon = system: HCC-2998 colon
HCT-116 colon = system: HCT-116 colon
HCT-15 colon = system: HCT-15 colon
HL-60(TB) leukemia = system: HL-60(TB) leukemia
HOP-62 NSCLC = system: HOP-62 NSCLC
HOP-92 NSCLC = system: HOP-92 NSCLC
HS 578T breast = system: HS 578T breast
HT29 colon = system: HT29 colon
IGROV1 ovarian = system: IGROV1 ovarian
K-562 leukemia = system: K-562 leukemia
KM12 colon = system: KM12 colon
LOX IMVI melanoma = system: LOX IMVI melanoma
M14 melanoma = system: M14 melanoma
MALME-3M melanoma = system: MALME-3M melanoma
MCF7 breast = system: MCF7 breast
MDA-MB-231 breast = system: MDA-MB-231 breast
MDA-MB-435 = system: MDA-MB-435
MDA-N = system: MDA-N
MOLT-4 leukemia = system: MOLT-4 leukemia
NCI-H226 lung = system: NCI-H226 lung
NCI-H23 lung = system: NCI-H23 lung
NCI-H460 lung = system: NCI-H460 lung
NCI-H522 lung = system: NCI-H522 lung
NCI/ADR-RES ovarian = system: NCI/ADR-RES ovarian
OVCAR-3 ovarian = system: OVCAR-3 ovarian
OVCAR-4 ovarian = system: OVCAR-4 ovarian
OVCAR-5 ovarian = system: OVCAR-5 ovarian
OVCAR-8 ovarian = system: OVCAR-8 ovarian
PC-3 prostate = system: PC-3 prostate
RPMI-8226 leukemia = system: RPMI-8226 leukemia
RXF 393 renal = system: RXF 393 renal
SF-268 CNS = system: SF-268 CNS
SF-295 CNS = system: SF-295 CNS
SF-539 CNS = system: SF-539 CNS
SK-MEL-2 melanoma = system: SK-MEL-2 melanoma
SK-MEL-28 melanoma = system: SK-MEL-28 melanoma
SK-MEL-5 melanoma = system: SK-MEL-5 melanoma
SK-OV-3 ovarian = system: SK-OV-3 ovarian
SN12C renal = system: SN12C renal
SNB-19 CNS = system: SNB-19 CNS
SNB-75 CNS = system: SNB-75 CNS
SW-620 colon = system: SW-620 colon
T-47D breast = system: T-47D breast
TK-10 renal = system: TK-10 renal
U251 CNS = system: U251 CNS
UACC-257 melanoma = system: UACC-257 melanoma
UACC-62 melanoma = system: UACC-62 melanoma
UO-31 renal = system: UO-31 renal

SMILES: O=C1c2ccccc2C(=O)c2c(NCC3CO3)cccc21 (stereo not drawn)
- TGI (786-0 renal): > 47.9 µM
- TGI (A498 renal): > 100 µM
- TGI (A549 NSCLC): > 100 µM
- TGI (ACHN renal): 31.4 µM
- TGI (BT-549 breast): 66.8 µM
- TGI (CAKI-1 renal): 77.3 µM
- TGI (CCRF-CEM leukemia): 7.71 µM
- TGI (COLO 205 colon): > 100 µM
- TGI (DU-145 prostate): > 34.3 µM
- TGI (EKVX NSCLC): > 57.6 µM
- TGI (HCC-2998 colon): > 100 µM
- TGI (HCT-116 colon): 17.6 µM
- TGI (HCT-15 colon): 32 µM
- TGI (HL-60(TB) leukemia): 15.8 µM
- TGI (HOP-62 NSCLC): > 100 µM
- TGI (HOP-92 NSCLC): > 100 µM
- TGI (HS 578T breast): > 100 µM
- TGI (HT29 colon): > 86 µM
- TGI (IGROV1 ovarian): > 60.3 µM
- TGI (K-562 leukemia): 17.3 µM
- TGI (KM12 colon): > 76.3 µM
- TGI (LOX IMVI melanoma): 5.38 µM
- TGI (M14 melanoma): 27.6 µM
- TGI (MALME-3M melanoma): > 100 µM
- TGI (MCF7 breast): 7.14 µM
- TGI (MDA-MB-231 breast): > 75 µM
- TGI (MDA-MB-435): 20 µM
- TGI (MDA-N): 23.7 µM
- TGI (MOLT-4 leukemia): 14.7 µM
- TGI (NCI-H226 lung): > 100 µM
- TGI (NCI-H23 lung): > 40.4 µM
- TGI (NCI-H460 lung): > 100 µM
- TGI (NCI-H522 lung): > 100 µM
- TGI (NCI/ADR-RES ovarian): 38 µM
- TGI (OVCAR-3 ovarian): > 45.8 µM
- TGI (OVCAR-4 ovarian): > 100 µM
- TGI (OVCAR-5 ovarian): > 100 µM
- TGI (OVCAR-8 ovarian): 24.8 µM
- TGI (PC-3 prostate): > 57 µM
- TGI (RPMI-8226 leukemia): > 85 µM
- TGI (RXF 393 renal): 20.6 µM
- TGI (SF-268 CNS): 17.9 µM
- TGI (SF-295 CNS): > 100 µM
- TGI (SF-539 CNS): > 100 µM
- TGI (SK-MEL-2 melanoma): 32 µM
- TGI (SK-MEL-28 melanoma): > 63.7 µM
- TGI (SK-MEL-5 melanoma): > 95.7 µM
- TGI (SK-OV-3 ovarian): > 100 µM
- TGI (SN12C renal): 20.1 µM
- TGI (SNB-19 CNS): > 100 µM
- TGI (SNB-75 CNS): > 100 µM
- TGI (SW-620 colon): 12.7 µM
- TGI (T-47D breast): > 100 µM
- TGI (TK-10 renal): > 100 µM
- TGI (U251 CNS): > 100 µM
- TGI (UACC-257 melanoma): > 100 µM
- TGI (UACC-62 melanoma): > 45.9 µM
- TGI (UO-31 renal): 22.5 µM
